Columns and labels:
[1] = target: T1, MEKK2 (Homo sapiens, UniProt Q9Y2U5); test: Kinase selectivity panel at 1 µM (Eurofins), MEKK2; format: biochemical; conditions: read-out: residual enzyme activity MEKK2
T1 construct: purchased Eurofins Discovery (France)
T1 sequence (Q9Y2U5 1-619): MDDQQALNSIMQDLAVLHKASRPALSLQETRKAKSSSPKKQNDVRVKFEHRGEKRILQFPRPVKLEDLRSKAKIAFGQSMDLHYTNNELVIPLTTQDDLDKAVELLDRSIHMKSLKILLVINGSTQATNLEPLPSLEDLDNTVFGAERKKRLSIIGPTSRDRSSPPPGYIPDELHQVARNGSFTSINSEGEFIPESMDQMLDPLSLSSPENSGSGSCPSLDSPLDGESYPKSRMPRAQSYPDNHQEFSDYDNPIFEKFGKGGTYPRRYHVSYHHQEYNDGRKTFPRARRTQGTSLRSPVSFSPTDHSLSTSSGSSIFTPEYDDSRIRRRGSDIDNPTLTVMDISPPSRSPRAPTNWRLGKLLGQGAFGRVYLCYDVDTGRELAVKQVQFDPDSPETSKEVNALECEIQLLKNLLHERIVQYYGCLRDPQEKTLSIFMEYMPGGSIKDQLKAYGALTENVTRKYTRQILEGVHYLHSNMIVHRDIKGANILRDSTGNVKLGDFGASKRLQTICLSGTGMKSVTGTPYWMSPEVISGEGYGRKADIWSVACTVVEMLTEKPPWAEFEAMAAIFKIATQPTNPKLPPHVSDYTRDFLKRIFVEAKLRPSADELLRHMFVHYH
Protocol: (§1) Three representative compounds (14d, 14e, and 15a) were profiled in a 1 µM concentration against 30 kinases that were selected as known off-targets of approved CDK4/6 inhibitors. […] Additional sensitive kinases include STK16, EphA1, MEKK2, SRC, and MER (≤10% of residual enzyme activities), which are not targets of the structurally similar CDK4/6 inhibitor, trilaciclib. We also screened compound 15a, an analogue of 14d, bearing isopropyl at position 7 of the purine instead of the methyl group. This change rapidly diminished the potency against CDK4 (dropped to 90% of residual enzyme activity), but the preference for FLT3 remained (1st rank) (Figure 2).
(§2) CDK/cyclin complexes and FLT3 kinases were assayed as previously described. Protein kinase selectivity was evaluated at a single concentration (1 µM) by screening against 30 enzymes at Eurofins Discovery (France).

[2] = target: T2, STK16 (Homo sapiens, UniProt O75716); test: Kinase selectivity panel at 1 µM (Eurofins), STK16; format: biochemical; conditions: read-out: residual enzyme activity STK16
T2 construct: purchased Eurofins Discovery (France)
T2 sequence (O75716 whole entry): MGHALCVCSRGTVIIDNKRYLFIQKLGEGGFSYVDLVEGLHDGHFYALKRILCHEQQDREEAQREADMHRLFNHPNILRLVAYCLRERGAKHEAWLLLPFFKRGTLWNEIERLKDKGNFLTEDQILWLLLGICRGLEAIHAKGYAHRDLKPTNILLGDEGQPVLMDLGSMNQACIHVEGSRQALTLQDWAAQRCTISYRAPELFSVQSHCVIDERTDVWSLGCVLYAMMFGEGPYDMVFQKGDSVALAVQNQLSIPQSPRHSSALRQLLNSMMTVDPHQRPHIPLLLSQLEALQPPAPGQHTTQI
Protocol: as §1, §2

[3] = target: T3, MER (Homo sapiens, UniProt Q12866); test: Kinase selectivity panel at 1 µM (Eurofins), MER; format: biochemical; conditions: read-out: residual enzyme activity MER
T3 construct: purchased Eurofins Discovery (France)
T3 sequence (Q12866 21-999): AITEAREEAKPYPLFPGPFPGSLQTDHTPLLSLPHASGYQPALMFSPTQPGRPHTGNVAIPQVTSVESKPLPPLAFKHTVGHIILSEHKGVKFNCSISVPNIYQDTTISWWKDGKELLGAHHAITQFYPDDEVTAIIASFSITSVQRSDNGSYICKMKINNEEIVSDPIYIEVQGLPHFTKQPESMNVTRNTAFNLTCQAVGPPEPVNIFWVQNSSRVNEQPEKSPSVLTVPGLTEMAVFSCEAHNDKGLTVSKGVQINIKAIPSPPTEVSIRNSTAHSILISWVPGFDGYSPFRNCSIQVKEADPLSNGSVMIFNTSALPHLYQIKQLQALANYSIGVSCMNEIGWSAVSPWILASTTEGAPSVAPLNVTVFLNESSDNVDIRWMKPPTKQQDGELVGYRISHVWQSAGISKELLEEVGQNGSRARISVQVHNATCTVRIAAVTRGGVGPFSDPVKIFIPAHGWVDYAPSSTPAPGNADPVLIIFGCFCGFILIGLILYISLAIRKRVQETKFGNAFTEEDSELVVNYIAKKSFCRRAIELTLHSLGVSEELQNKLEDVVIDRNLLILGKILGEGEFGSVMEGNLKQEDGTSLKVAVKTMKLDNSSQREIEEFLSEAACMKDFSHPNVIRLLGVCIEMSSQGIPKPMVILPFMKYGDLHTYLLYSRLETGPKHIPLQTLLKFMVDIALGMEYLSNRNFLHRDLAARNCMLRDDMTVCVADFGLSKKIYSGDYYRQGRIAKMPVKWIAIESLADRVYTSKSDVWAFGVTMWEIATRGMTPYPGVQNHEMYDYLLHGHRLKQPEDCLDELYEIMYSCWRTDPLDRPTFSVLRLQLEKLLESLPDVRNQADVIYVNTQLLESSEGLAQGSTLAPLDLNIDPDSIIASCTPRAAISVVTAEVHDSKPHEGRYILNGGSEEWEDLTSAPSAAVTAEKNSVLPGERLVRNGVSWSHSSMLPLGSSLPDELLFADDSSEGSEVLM
Protocol: as §1, §2

[4] = tested on: K562 cells; test: Flow cytometric cell cycle analysis, K562; format: cell-based, Human; conditions: 24 h
Protocol: FLT3 inhibition causes G1-cell cycle arrest in FLT3-dependent cell lines such as MV4-11; we, therefore, performed flow cytometric analysis to evaluate cell cycle changes in MV4-11 and K562 cell lines treated with 200 nM compounds for 24 h. […] Specifically, 18 compounds arrested >85% of cells in the G1 phase, which is >30% cells in the G1 phase of the cell cycle than in control cells (Figure 4A).
Finally, we performed flow cytometric analysis with different concentrations of 15a in MV4-11 and MOLM13 (another FLT-ITD positive cell line) and K562 cell lines treated for 24 h (Figure 5).
Asynchronously growing cells were seeded into a 96-well plate and, after a preincubation period, treated with tested compounds for 24 h. The treated cells were stained directly (or after trypsinization for the adherent cells) with the 5× staining solution (17 mM trisodium citrate dihydrate, 0.5% IGEPAL CA-630, 7.5 mM spermine tetrahydrochloride, and 2.5 mM Tris; pH 7.6 containing […] propidium iodide). After the staining, DNA content was analyzed using flow cytometry using a 488 nm laser (BD FACS Verse with software BD FACSuite^TM, version 1.0.6). Cell cycle distribution was analyzed using ModFit LT (Verity Software House, version 5.0). Palbociclib, trilaciclib, and quizartinib were purchased from MedChemExpress, Monmouth Junction, NJ, USA.

[5] = tested on: FLT3 signaling (FLT3 Y589/591, STAT5, ERK1/2) in MV4-11 cells; test: Western blot of FLT3 and downstream signaling in MV4-11; format: cell-based, Human; conditions: MV4-11, 1 h treatment
Protocol: Next, we investigated the compounds for their ability to inhibit FLT3 and its downstream signaling in the MV4-11 cell line.
Cell lysates were prepared, and then proteins were separated on SDS-polyacrylamide gels and electroblotted onto nitrocellulose membranes.

`Cn1c(=O)n(C2CCCC2)c2nc(Nc3ccc(N4CCNCC4)cc3)ncc21` [14d] was tested, and the remaining activity at 1 µM [1] was no more than 10%, the remaining activity at 1 µM [2] was no more than 10% and the remaining activity at 1 µM [3] was no more than 10%.
For `Cn1c(=O)n(C2CCCCC2)c2nc(Nc3ccc(N4CCNCC4)cc3)ncc21` [14e], the “effect on cell cycle (G1 arrest) in K562” value ([4]; 200 nM) was “moderate G1 block”, the remaining activity at 1 µM [1] was no more than 10% and the remaining activity at 1 µM [2] was no more than 10%. The remaining activity at 1 µM [3] was no more than 10%, the “autophosphorylation of FLT3 kinase at Y589/591” value [5] was “inhibits autophosphorylation of FLT3 kinase at Y589/591” and the “phosphorylation of downstream proteins STAT5 and ERK1/2” value [5] was “diminishes the phosphorylation”.
`CC(C)n1c(=O)n(C2CCCC2)c2nc(Nc3ccc(N4CCNCC4)cc3)ncc21` [15a, 9-cyclopentyl-7-isopropyl-2-((4-(piperazin-1-yl)phenyl)amino)-7,9-dihydro-8H-purin-8-one] was tested, and the “cell cycle changes in K562” value ([4]; different concentrations) was “did not show any changes”, the “concentration at which dephosphorylation of FLT3 was observed” value [5] was 8 nM and the “concentration giving nearly complete suppression of ERK1/2” value [5] was 40 nM.

— publication PMC9782245, “Synthesis and Structural Optimization of 2,7,9-Trisubstituted purin-8-ones as FLT3-ITD Inhibitors” (International Journal of Molecular Sciences, 2022)
